Source: the OligoGym collection
HELM strings list units from the 5' end as sugar, base in round brackets, then linkage (d deoxyribose, r ribose, m 2'-O-methyl, p phosphodiester). Strings are as the collection lists them; they lack the last nucleoside at the 3' end of the tested compound. [moe] = 2'-O-(2-methoxyethyl) (MOE); [sp] = phosphorothioate linkage; [m5C] = 5-methylcytosine

Biological target: UBE3A-ATS
Test: mouse, dose not given
Settings: ASO

Substance | 3 h FOB score
RNA1{[moe]([m5C])[sp].[moe](A)p.[moe](G)p.[moe](T)p.[moe](A)p.d(G)[sp].d(T)[sp].d(G)[sp].d(G)[sp].d(T)[sp].d(A)[sp].d(T)[sp].d([m5C])[sp].d(A)[sp].d(A)[sp].[moe](A)p.[moe](T)p.[moe]([m5C])[sp].[moe](T)}$$$$ (last 3' nucleoside missing) | 6.2 score 0-7
RNA1{[moe]([m5C])[sp].[moe](A)p.[moe](G)p.[moe](T)p.[moe](A)p.d(T)[sp].d([m5C])[sp].d(T)[sp].d(T)[sp].d(A)[sp].d(A)[sp].d([m5C])[sp].d(T)[sp].d(G)[sp].d(G)[sp].[moe](T)p.[moe](G)p.[moe](A)[sp].[moe](A)}$$$$ (last 3' nucleoside missing) | 1 score 0-7
RNA1{[moe]([m5C])[sp].[moe](A)p.[moe](G)p.[moe](T)p.[moe](T)[sp].d(A)[sp].d(G)[sp].d(G)[sp].d(T)[sp].d(T)[sp].d(A)[sp].d(G)[sp].d(T)[sp].[moe](G)p.[moe]([m5C])p.[moe](A)[sp].[moe]([m5C])}$$$$ (last 3' nucleoside missing) | 4 score 0-7
RNA1{[moe]([m5C])[sp].[moe](A)p.[moe](G)p.[moe](T)p.[moe](T)p.[moe](A)[sp].d(G)[sp].d(G)[sp].d(T)[sp].d(T)[sp].d(A)[sp].d(G)[sp].d(T)[sp].d(G)[sp].[moe]([m5C])p.[moe](A)[sp].[moe]([m5C])}$$$$ (last 3' nucleoside missing) | 3.7 score 0-7
RNA1{[moe]([m5C])[sp].[moe](A)p.[moe](G)p.[moe](T)p.[moe](T)p.[moe](A)p.d(G)[sp].d(G)[sp].d(T)[sp].d(T)[sp].d(A)[sp].d(G)[sp].d(T)[sp].d(G)[sp].d([m5C])[sp].d(A)[sp].[moe]([m5C])p.[moe](A)[sp].[moe](G)}$$$$ (last 3' nucleoside missing) | 5.2 score 0-7
RNA1{[moe]([m5C])[sp].[moe](A)p.[moe](G)p.[moe](T)p.[moe](T)p.d(A)[sp].d(G)[sp].d(G)[sp].d(T)[sp].d(T)[sp].d(A)[sp].d(G)[sp].d(T)[sp].d(G)[sp].d([m5C])[sp].[moe](A)p.[moe]([m5C])p.[moe](A)[sp].[moe](G)}$$$$ (last 3' nucleoside missing) | 6 score 0-7
RNA1{[moe]([m5C])[sp].[moe](A)p.[moe](G)p.[moe](T)p.[moe](T)p.d(G)[sp].d(T)[sp].d(G)[sp].d(T)[sp].d(A)[sp].d(T)[sp].d(T)[sp].d(G)[sp].d(A)[sp].d([m5C])[sp].[moe](T)p.[moe](A)p.[moe](A)[sp].[moe](G)}$$$$ (last 3' nucleoside missing) | 4.8 score 0-7
RNA1{[moe]([m5C])[sp].[moe](A)p.[moe](G)p.[moe](T)p.[moe](T)p.d(T)[sp].d(T)[sp].d([m5C])[sp].d(G)[sp].d([m5C])[sp].d([m5C])[sp].d([m5C])[sp].d(G)[sp].d(T)[sp].d(T)[sp].[moe](A)p.[moe]([m5C])p.[moe]([m5C])[sp].[moe](T)}$$$$ (last 3' nucleoside missing) | 5 score 0-7
RNA1{[moe]([m5C])[sp].[moe](A)p.[moe](G)p.[moe]([m5C])p.[moe]([m5C])p.d(A)[sp].d(G)[sp].d(G)[sp].d(T)[sp].d(G)[sp].d(T)[sp].d([m5C])[sp].d(T)[sp].d(T)[sp].d(A)[sp].[moe](T)p.[moe](A)p.[moe](T)[sp].[moe]([m5C])}$$$$ (last 3' nucleoside missing) | 2.3 score 0-7
RNA1{[moe]([m5C])[sp].[moe](A)p.[moe](G)p.[moe]([m5C])p.[moe]([m5C])p.d(A)[sp].d([m5C])[sp].d(T)[sp].d(T)[sp].d(T)[sp].d(G)[sp].d([m5C])[sp].d(A)[sp].d(A)[sp].d([m5C])[sp].[moe](T)p.[moe]([m5C])p.[moe](A)[sp].[moe](A)}$$$$ (last 3' nucleoside missing) | 6.2 score 0-7
RNA1{[moe]([m5C])[sp].[moe](A)p.[moe](T)p.[moe](A)[sp].d([m5C])[sp].d([m5C])[sp].d([m5C])[sp].d(A)[sp].d(G)[sp].d(G)[sp].d(G)[sp].d(T)[sp].[moe](A)p.[moe](G)p.[moe](G)p.[moe](A)[sp].[moe](T)}$$$$ (last 3' nucleoside missing) | 1 score 0-7
RNA1{[moe]([m5C])[sp].[moe](A)p.[moe](T)p.[moe](A)p.[moe](T)p.d(A)[sp].d([m5C])[sp].d(T)[sp].d(A)[sp].d(A)[sp].d(A)[sp].d(T)[sp].d(G)[sp].d(T)[sp].d(T)[sp].[moe](G)p.[moe]([m5C])p.[moe]([m5C])[sp].[moe](G)}$$$$ (last 3' nucleoside missing) | 1 score 0-7
RNA1{[moe]([m5C])[sp].[moe](A)p.[moe](T)p.[moe](A)p.[moe](T)p.d(G)[sp].d(A)[sp].d(A)[sp].d(G)[sp].d([m5C])[sp].d(T)[sp].d(A)[sp].d(T)[sp].d(A)[sp].d(G)[sp].[moe](G)p.[moe](T)p.[moe](A)[sp].[moe]([m5C])}$$$$ (last 3' nucleoside missing) | 1 score 0-7
RNA1{[moe]([m5C])[sp].[moe](A)p.[moe](T)p.[moe](A)p.[moe]([m5C])[sp].d([m5C])[sp].d([m5C])[sp].d(A)[sp].d(G)[sp].d(G)[sp].d(G)[sp].d(T)[sp].d(A)[sp].[moe](G)p.[moe](G)p.[moe](A)[sp].[moe](T)}$$$$ (last 3' nucleoside missing) | 1 score 0-7
RNA1{[moe]([m5C])[sp].[moe](A)p.[moe](T)p.[moe](A)p.[moe]([m5C])p.[moe]([m5C])[sp].d([m5C])[sp].d(A)[sp].d(G)[sp].d(G)[sp].d(G)[sp].d(T)[sp].d(A)[sp].d(G)[sp].[moe](G)p.[moe](A)[sp].[moe](T)}$$$$ (last 3' nucleoside missing) | 2 score 0-7
RNA1{[moe]([m5C])[sp].[moe](A)p.[moe](T)p.[moe](G)p.[moe](T)p.d(G)[sp].d(G)[sp].d(G)[sp].d([m5C])[sp].d([m5C])[sp].d(T)[sp].d([m5C])[sp].d(T)[sp].d(A)[sp].d(T)[sp].[moe](T)p.[moe](A)p.[moe](A)[sp].[moe](G)}$$$$ (last 3' nucleoside missing) | 4 score 0-7
RNA1{[moe]([m5C])[sp].[moe](A)p.[moe](T)p.[moe](T)p.[moe](A)p.d(T)[sp].d(T)[sp].d([m5C])[sp].d(A)[sp].d(A)[sp].d(T)[sp].d(T)[sp].d(A)[sp].d(A)[sp].d(G)[sp].[moe](G)p.[moe](G)p.[moe](T)[sp].[moe](G)}$$$$ (last 3' nucleoside missing) | 4 score 0-7
RNA1{[moe]([m5C])[sp].[moe](A)p.[moe](T)p.[moe](T)p.[moe](A)p.d(T)[sp].d(T)[sp].d([m5C])[sp].d(T)[sp].d([m5C])[sp].d(T)[sp].d(A)[sp].d(G)[sp].d(T)[sp].d(G)[sp].[moe]([m5C])p.[moe]([m5C])p.[moe](T)[sp].[moe](A)}$$$$ (last 3' nucleoside missing) | 4 score 0-7
RNA1{[moe]([m5C])[sp].[moe](A)p.[moe](T)p.[moe](T)p.[moe](G)p.d(G)[sp].d([m5C])[sp].d(T)[sp].d(T)[sp].d([m5C])[sp].d(A)[sp].d(T)[sp].d(A)[sp].d(T)[sp].d(T)[sp].[moe](T)p.[moe]([m5C])p.[moe](T)[sp].[moe]([m5C])}$$$$ (last 3' nucleoside missing) | 0 score 0-7
RNA1{[moe]([m5C])[sp].[moe](A)p.[moe](T)p.[moe]([m5C])p.[moe](A)p.d(T)[sp].d(G)[sp].d(A)[sp].d(T)[sp].d([m5C])[sp].d(T)[sp].d(T)[sp].d(G)[sp].d(G)[sp].d(T)[sp].[moe](A)p.[moe](A)p.[moe](G)[sp].[moe](G)}$$$$ (last 3' nucleoside missing) | 3 score 0-7
RNA1{[moe]([m5C])[sp].[moe](A)p.[moe](T)p.[moe]([m5C])p.[moe](T)p.d([m5C])[sp].d(G)[sp].d(G)[sp].d(G)[sp].d(T)[sp].d(A)[sp].d(T)[sp].d(A)[sp].d(T)[sp].d(A)[sp].[moe](A)p.[moe](A)p.[moe](T)[sp].[moe](T)}$$$$ (last 3' nucleoside missing) | 2 score 0-7
RNA1{[moe]([m5C])[sp].[moe](A)p.[moe]([m5C])p.[moe](A)p.[moe](T)p.d(T)[sp].d(A)[sp].d([m5C])[sp].d([m5C])[sp].d([m5C])[sp].d(A)[sp].d(T)[sp].d([m5C])[sp].d([m5C])[sp].d(G)[sp].[moe](T)p.[moe](T)p.[moe]([m5C])[sp].[moe](T)}$$$$ (last 3' nucleoside missing) | 0 score 0-7
RNA1{[moe]([m5C])[sp].[moe](A)p.[moe]([m5C])p.[moe](T)p.[moe](G)p.d(A)[sp].d(G)[sp].d(T)[sp].d(T)[sp].d(T)[sp].d(T)[sp].d(T)[sp].d(G)[sp].d(T)[sp].d(A)[sp].[moe](G)p.[moe](T)p.[moe](T)[sp].[moe]([m5C])}$$$$ (last 3' nucleoside missing) | 4 score 0-7
RNA1{[moe]([m5C])[sp].[moe](A)p.[moe]([m5C])p.[moe](T)p.[moe]([m5C])p.d(A)[sp].d(T)[sp].d(T)[sp].d(T)[sp].d(T)[sp].d(G)[sp].d(T)[sp].d(T)[sp].d([m5C])[sp].d(A)[sp].[moe](G)p.[moe]([m5C])p.[moe](T)[sp].[moe](T)}$$$$ (last 3' nucleoside missing) | 3 score 0-7
RNA1{[moe]([m5C])[sp].[moe](A)p.[moe]([m5C])p.[moe](T)p.[moe]([m5C])p.d(T)[sp].d(A)[sp].d(T)[sp].d(A)[sp].d(G)[sp].d(G)[sp].d(T)[sp].d(T)[sp].d([m5C])[sp].d(A)[sp].[moe](A)p.[moe](G)p.[moe]([m5C])[sp].[moe](A)}$$$$ (last 3' nucleoside missing) | 4 score 0-7
RNA1{[moe]([m5C])[sp].[moe](A)p.[moe]([m5C])p.[moe]([m5C])p.[moe](T)p.d(A)[sp].d(G)[sp].d(G)[sp].d([m5C])[sp].d(T)[sp].d(G)[sp].d(G)[sp].d(G)[sp].d([m5C])[sp].d([m5C])[sp].[moe](T)p.[moe]([m5C])p.[moe](A)[sp].[moe](G)}$$$$ (last 3' nucleoside missing) | 3.5 score 0-7
RNA1{[moe]([m5C])[sp].[moe](G)p.[moe](G)p.[moe](A)p.[moe]([m5C])p.d(A)[sp].d(G)[sp].d(T)[sp].d(G)[sp].d(T)[sp].d(T)[sp].d(G)[sp].d([m5C])[sp].d(T)[sp].d(G)[sp].[moe](T)p.[moe](T)p.[moe](A)[sp].[moe](G)}$$$$ (last 3' nucleoside missing) | 6 score 0-7
